Assay [1] concerns Straub tail. The experiment in a line: Straub tail reaction (oral), narcotic agonist effect. The format is in vivo, CF1 S female mice. The settings on record: Mus musculus, mice. As for the experimental part:
Narcotic analgesics produce in mice an erection and arching of the tail (90° or more) which is referable to spinal cord stimulation. This Straub tail reaction is not produced by other analgesics, including the narcotic antagonists.
The method used was modified from Shemano, I., and Wendel, H., Tox. Appl. Pharm., 6, 334-9 (1964). CF1 S female mice (18-21 g), 10-20 mice per dose, were intubated with log scaled doses of analgesic in 1% aqueous methylcellulose. A positive Straub tail response was recorded if a tail was erected 90° or more for 5 seconds at any time within 24 minutes after dosing. A quantal Straub tail ED50 was calculated by the moving average method [Thompson, W. R., Bact. Rev., 11, 115-145 (1947)].

For assay [2], the system named is induction of Straub tail in mice by a highly addicting agonist such as morphine. Briefly: anti-Straub tail test, antagonism of morphine-induced Straub tail (narcotic antagonism). To be noted: mice, vs morphine sulfate 30 mg/kg i.p.; for ED50: Mus musculus. The assay is classed as in vivo, Female CF1 S mice.
Assay [3] deals with pain induced by phenylquinone. Briefly: phenylquinone writhing test (oral anti-PQW), analgesic activity. The format is in vivo, female white mice. To be noted: Mus musculus, po, mice, oral, phenylquinone writhing, ED50; read-out: EFFECT ED50 Oral Anti-PQW. Here is the method: A standard procedure for detecting and comparing the analgesic activity of compounds in this series for which there is good correlation with human efficacy is the standard phenylquinone writhing test modified from Siegmund, et al., Proc. Soc. Exp. Biol. Med., 95, 729 (1957). A test compound suspended in 1% methocel® was given orally to fasted (17-21 hours) female white mice, 5-20 animals per double blind test. Aqueous (0.01% phenyl-p-benzoquinone) phenylquinone was injected intraperitoneally at 24 minutes later using 0.20 ml per mouse. […] The effective analgesic dose for 50% of the mice (ED50) was calculated by the moving average method of Thompson, W. R., Bact. Rev., 11, 115-145 (1947).
On the technique in general: In writhing tests, fewer writhes than in controls are read as antinociception.

The mark [4] stands for this setting: ip, i.p., read-out: EFFECT ED50 Intraperitoneal(i.p.) Anti-Straub Tail.
The mark [5] stands for this setting: sc, s.c., read-out: EFFECT ED50 subcutaneous(s.c.) Anti-Straub Tail.

Like-named read-outs stand apart in the source and are kept apart here. Where only a bound is given, the exact number is not on record here.

Turning to `COc1cccc2c1O[C@H]1CCC[C@H]3CN(C)CC[C@@]231` (relative stereo) [Example 2, 9-Methoxy-3-methyl-2,3,4,4aα-5,6,7,7aα-octahydro-1H-benzo[4,5]furo[3,2-e]isoquinoline], the ED50 in assay [1] was greater than 135 mg/kg; in assay [2] (setting [4]), 10.1 mg/kg; in assay [3] it was 9.8 mg/kg.
For `CCCCCN1CCC23c4cccc(O)c4OC2CCCC3C1` (stereo not drawn) [Example 26], the ED50 in assay [1] is 37 mg/kg; in assay [2] (setting [5]), greater than 27 mg/kg; in assay [3], 5.3 mg/kg.
The matching figures for `Oc1cccc2c1OC1CCCC3CN(Cc4ccco4)CCC231` (stereo not drawn) [Example 38]: greater than 135 mg/kg, 7.2 mg/kg and 108 mg/kg.
The corresponding values for `CN1CC[C@]23c4cccc(O)c4O[C@H]2CCC[C@H]3C1` (relative stereo) [Example 3, 3-Methyl-2,3,4,4aα,5,6,7,7aα-octahydro-1H-benzo[4,5]furo[3,2-e]isoquinolin-9-ol] are greater than 135 mg/kg, 0.27 mg/kg and 3.5 mg/kg.
On to `COc1cccc2c1O[C@H]1CCC[C@H]3CN(CC=C(C)C)CC[C@@]231` (relative stereo) [Example 17, 3-(3'-Methyl-2'-butenyl)-9-methoxy-2,3,4,4aα,5,6,7,7aα-octahydro-1H-benzo[4,5]furo[3,2-e]isoquinoline], for which the ED50 in assay [1] was greater than 135 mg/kg; in assay [2] (setting [5]), 7.8 mg/kg; in assay [3], 18.7 mg/kg.
For the compound `COc1cccc2c1O[C@H]1CCC[C@H]3CN(CC4CC4)CC[C@@]231` (relative stereo) [Example 4, 3-Cyclopropylmethyl-9-methoxy-2,3,4,4aα,5,6,7,7aα-octahydro-1H-benzo[4,5]furo[3,2-e]isoquinoline], the values for the ED50 in assay [1], in assay [2] (setting [4]) and in assay [3] were greater than 135 mg/kg, 0.31 mg/kg and 19.7 mg/kg, respectively.
For the compound `COc1cccc2c1O[C@H]1CCC[C@H]3CN(CC#N)CC[C@@]231` (relative stereo) [Example 20, 9-Methoxy-2,3,4,4aα,5,6,7,7aα-octahydro-1H-benzo[4,5]furo[3,2-e]isoquinoline-3-acetonitrile], the figures for the ED50 in assay [1], in assay [2] (setting [5]) and in assay [3] were greater than 135 mg/kg, greater than 27 mg/kg and 26 mg/kg, respectively.
The corresponding values for `Oc1cccc2c1OC1CCCC3CN(CC4CCCCC4)CCC231` (stereo not drawn) [Example 34] are greater than 135 mg/kg, greater than 27 mg/kg and 23 mg/kg.
The matching figures for `CCCCCN1CCC23c4cccc(OC)c4OC2CCCC3C1` (stereo not drawn) [Example 25]: 57 mg/kg, greater than 27 mg/kg and 6.2 mg/kg.
The corresponding values for `CC(C)CCN1CC[C@]23c4cccc(O)c4O[C@H]2CCC[C@H]3C1` (relative stereo) [Example 19, 3-(3'-Methylbutyl)-2,3,4,4aα,5,6,7,7aα-octahydro-1H-benzo[4,5]furo[3,2-e]isoquinolin-9-ol] are greater than 135 mg/kg, 0.64 mg/kg and 33 mg/kg.
In the case of `CC(C)=CCN1CC[C@]23c4cccc(O)c4O[C@H]2CCC[C@H]3C1` (relative stereo) [Example 18, 3-(3'-methyl-2'-butenyl)-2,3,4,4aα,5,6,7,7aα-octahydro-1H-benzo[4,5]furo[3,2-e]isoquinolin-9-ol], the results for the ED50 in assay [1], in assay [2] (setting [5]) and in assay [3] were 32 mg/kg, greater than 27 mg/kg and 10.8 mg/kg, respectively.
The matching figures for `CCCCN1CC[C@]23c4cccc(OC)c4O[C@H]2CCC[C@H]3C1` (relative stereo) [Example 23]: greater than 135 mg/kg, 0.82 mg/kg and 33 mg/kg.
As to `CCCCCCN1CCC23c4cccc(O)c4OC2CCCC3C1` (stereo not drawn) [Example 28], the ED50 in assay [1] turned out to be 26 mg/kg; in assay [3] it was 2.9 mg/kg.
Consider `C=CCN1CC[C@]23c4cccc(O)c4O[C@H]2CCC[C@H]3C1` (relative stereo) [Example 16, 3-Allyl-2,3,4,4aα,5,6,7,7aα-octahydro-1H-benzo[4,5]furo[3,2-e]isoquinolin-9-ol], for which the ED50 was greater than 81 mg/kg in assay [1], 0.03 mg/kg in assay [2] (setting [5]) and 81 mg/kg in assay [3].
Take `CCN1CC[C@]23c4cccc(OC)c4O[C@H]2CCC[C@H]3C1` (relative stereo) [Example 14a, 3-ethyl-9-methoxy-2,3,4,4aα,5,6,7,7aα-octahydro-1H-benzo[4,5]furo[3,2-e] isoquinoline]: the ED50 was greater than 135 mg/kg in assay [1], 0.71 mg/kg in assay [2] (setting [5]) and 63 mg/kg in assay [3].
The matching figures for `COc1cccc2c1OC1CCCC3CN(Cc4cccs4)CCC231` (stereo not drawn) [Example 41]: greater than 135 mg/kg, greater than 27 mg/kg and 48 mg/kg.
On to `Oc1cccc2c1O[C@H]1CCC[C@H]3CNCC[C@@]231` (relative stereo) [Example 13, 2,3,4,4aα,5,6,7,7aα-octahydro-1H-benzo[4,5]furo[3,2-e]isoquinol in-9-ol], for which the ED50 is greater than 135 mg/kg in assay [1], greater than 27 mg/kg in assay [2] (setting [5]) and 15 mg/kg in assay [3].
The corresponding values for `COc1cccc2c1OC1CCCC3CN(CC(C)C)CCC231` (stereo not drawn) [Example 31] are greater than 135 mg/kg, 0.24 mg/kg and 94 mg/kg.
Take `CN1CCC23c4cccc(O)c4OC2CCCC3C1` (single isomer, unassigned; isomer 3) [Example 3 (+)isomer, 3-Methyl-2,3,4,4aα,5,6,7,7aα-octahydro-1H-benzo[4,5]furo[3,2-e]isoquinolin-9-ol]: the “EFFECT ED50 subcutaneous(s.c.) Anti-Straub Tail” value in assay [2] (s.c., listed as 3 (+)isomer) was determined as 3.3.
As to `Oc1cccc2c1OC1CCCC3CN(CC4CCCO4)CCC231` (stereo not drawn) [Example 40], the results for the ED50 in assay [2] (setting [5]) and in assay [3] were 0.19 mg/kg and 11.8 mg/kg, respectively.
For the compound `CN1CC[C@]23c4ccccc4O[C@H]2CCC[C@H]3C1` (relative stereo) [Example 1, 3-Methyl-2,3,4,4aα,5,6,7,7aα,octahydro-1H-benzo[4,5]furo[3,2-e]isoquinoline], the ED50 in assay [1] was greater than 81 mg/kg; in assay [3] it was 14 mg/kg.
For `CCCCCCCCN1CCC23c4cccc(OC)c4OC2CCCC3C1` (stereo not drawn) [Example 29], the ED50 in assay [2] (setting [5]) was greater than 27 mg/kg; in assay [3], 7.2 mg/kg.
For `COc1cccc2c1O[C@H]1CCC[C@H]3CNCC[C@@]231` (relative stereo) [Example 12, 9-Methoxy-2,3,4,4aα,5,6,7,7aα-octahydro-1H-benzo[4,5]furo[3,2-e]isoquinoline], the ED50 in assay [1] was greater than 81 mg/kg; in assay [3], 47 mg/kg.
As to `COc1cccc2c1OC1CCCC3CN(CC4CCCCC4)CCC231` (stereo not drawn) [Example 33], the ED50 was greater than 135 mg/kg in assay [1] and 135 mg/kg in assay [3].
On to `CN1CCC23c4cccc(O)c4OC2CCCC3C1` (single isomer, unassigned; isomer 3) [Example 3 (-)isomer, 3-Methyl-2,3,4,4aα,5,6,7,7aα-octahydro-1H-benzo[4,5]furo[3,2-e]isoquinolin-9-ol], for which, in assay [1], the ED50 was greater than 135 mg/kg. Further, the “EFFECT ED50 subcutaneous(s.c.) Anti-Straub Tail” value in assay [2] (s.c., listed as 3 (-)isomer) amounted to 0.14.
In the case of `Oc1cccc2c1OC1CCCC3CN(Cc4cccs4)CCC231` (stereo not drawn) [Example 42], the ED50 was greater than 135 mg/kg in assay [1] and 108 mg/kg in assay [3].
In the case of `COc1cccc2c1OC1CCCC3CN(CC4CCCO4)CCC231` (stereo not drawn) [Example 39], the ED50 was found to be 4.7 mg/kg in assay [2] (setting [5]) and 16.7 mg/kg in assay [3].
Take `CCCCCCCCN1CCC23c4cccc(O)c4OC2CCCC3C1` (stereo not drawn) [Example 30]: the ED50 in assay [1] was 54 mg/kg; in assay [3], 4.2 mg/kg.

One may read the ED50 as the dose that gives a 50% effect, or the effect in half of the subjects.

The values are drawn from US4243668A, “Octahydro-1H-benzo[4,5]furo[3,2-e]-isoquinoline analgesic and narcotic antagonistic compounds” (priority 1979, dated 1981).
